ChEMBL document CHEMBL2331474, “Development of a selective peptide macrocycle inhibitor of coagulation factor XII toward the generation of a safe antithrombotic therapy” (J Med Chem, 2013)
Numbered stars: 1 amine (or outer) side, 2 acyl side, 3 side chain; on linkers, the order of the positions; unused ones are H or OH. Bridge positions count the residues as written; N and C are the ends. Peptide text beside a SMILES is read from it. TBMB = c1c(C[*:1])cc(C[*:3])cc1C[*:2]

Assays:
Coagulation factor XII = molecular target: T1, Coagulation factor XII (Homo sapiens, UniProt P00748); assay: Inhibition of human biotinylated beta factor 12a expressed in Escherichia coli TG1 using Z-Gly-Gly-Arg-AMC as substrate assessed as residual activity by fluorometric analysis
T1 sequence (P00748 whole entry): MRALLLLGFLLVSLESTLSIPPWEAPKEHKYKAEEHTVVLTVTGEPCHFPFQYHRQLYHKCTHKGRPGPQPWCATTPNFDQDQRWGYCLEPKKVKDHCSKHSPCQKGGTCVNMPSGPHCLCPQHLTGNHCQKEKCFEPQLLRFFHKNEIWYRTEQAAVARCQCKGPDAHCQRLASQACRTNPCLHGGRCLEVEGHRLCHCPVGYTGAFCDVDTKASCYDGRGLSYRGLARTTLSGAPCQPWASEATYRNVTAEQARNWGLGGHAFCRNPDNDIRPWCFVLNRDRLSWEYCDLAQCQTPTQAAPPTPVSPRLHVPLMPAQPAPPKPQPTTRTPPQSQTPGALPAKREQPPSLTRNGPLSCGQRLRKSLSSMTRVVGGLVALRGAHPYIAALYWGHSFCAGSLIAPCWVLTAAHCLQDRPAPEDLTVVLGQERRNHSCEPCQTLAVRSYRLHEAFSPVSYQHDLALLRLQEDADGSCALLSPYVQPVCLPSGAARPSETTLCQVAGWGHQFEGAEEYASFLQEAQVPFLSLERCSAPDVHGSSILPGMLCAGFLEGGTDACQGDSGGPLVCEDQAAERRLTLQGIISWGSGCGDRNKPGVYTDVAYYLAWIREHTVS

Plasminogen = Plasminogen (Homo sapiens, UniProt P00747); assay: Inhibition of human plasmin using H-D-Val-Leu-Lys-AMC as substrate assessed as residual activity by fluorescence plate reader analysis
Prothrombin = Prothrombin (Homo sapiens, UniProt P00734); assay: Inhibition of human thrombin using Z-Gly-Gly-Arg-AMC as substrate assessed as residual activity by fluorescence plate reader analysis
[1] = molecular target: Urokinase-type plasminogen activator (Homo sapiens, UniProt P00749); assay: Inhibition of human uPA using Z-Gly-Gly-Arg-AMC as substrate assessed as residual activity by fluorometric analysis
[2] = molecular target: Tissue-type plasminogen activator (Homo sapiens, UniProt P00750); assay: Inhibition of human tPA using Z-Gly-Gly-Arg-AMC as substrate assessed as residual activity by fluorometric analysis
Plasma kallikrein = Plasma kallikrein (Homo sapiens, UniProt P03952); assay: Inhibition of human PK using Z-Phe-Arg-AMC as substrate assessed as residual activity by fluorometric analysis
Serine protease 1 = Serine protease 1 (Homo sapiens, UniProt P07477); assay: Inhibition of human trypsin using Z-Gly-Gly-Arg-AMC as substrate assessed as residual activity by fluorescence plate reader analysis
Coagulation factor XI = Coagulation factor XI (Homo sapiens, UniProt P03951); assay: Inhibition of human coagulation factor 11a using Boc-Phe-Ser-Arg-AMC as substrate assessed as residual activity by fluorometric analysis
[3] = molecular target: T2, Coagulation factor XII (Homo sapiens) (UniProt P00748); assay: Inhibition of factor 12 in human plasma assessed as residual activity at 200 uM relative to control
T2 sequence (whole entry): T1 sequence (P00748 whole entry)

[4] = molecular target: T2, Coagulation factor XII (Homo sapiens); assay: Inhibition of factor 12 in human plasma assessed as residual activity at 10 uM relative to control
[5] = molecular target: T2, Coagulation factor XII (Homo sapiens); assay: Inhibition of factor 12 in human plasma assessed as decrease in residual activity relative to control
[6] = molecular target: T2, Coagulation factor XII (Homo sapiens); assay: Inhibition of factor 12 in human plasma assessed as residual activity at 100 uM relative to control
[7] = molecular target: T2, Coagulation factor XII (Homo sapiens); assay: Inhibition of factor 12 in human plasma assessed as residual activity at 500 uM relative to control
Plasma = assay: Inhibition of intrinsic coagulation in human plasma assessed as increase in activated partial […] time; assay type: functional, cell-free
[8] = molecular target: T2, Coagulation factor XII (Homo sapiens); assay: Inhibition of factor 12 in human plasma assessed as residual activity at 20 uM relative to control
[9] = molecular target: T2, Coagulation factor XII (Homo sapiens); assay: Inhibition of factor 12 in human plasma assessed as residual activity at 50 uM relative to control

Chain of Plasminogen (P00747 97-580 limits assumed): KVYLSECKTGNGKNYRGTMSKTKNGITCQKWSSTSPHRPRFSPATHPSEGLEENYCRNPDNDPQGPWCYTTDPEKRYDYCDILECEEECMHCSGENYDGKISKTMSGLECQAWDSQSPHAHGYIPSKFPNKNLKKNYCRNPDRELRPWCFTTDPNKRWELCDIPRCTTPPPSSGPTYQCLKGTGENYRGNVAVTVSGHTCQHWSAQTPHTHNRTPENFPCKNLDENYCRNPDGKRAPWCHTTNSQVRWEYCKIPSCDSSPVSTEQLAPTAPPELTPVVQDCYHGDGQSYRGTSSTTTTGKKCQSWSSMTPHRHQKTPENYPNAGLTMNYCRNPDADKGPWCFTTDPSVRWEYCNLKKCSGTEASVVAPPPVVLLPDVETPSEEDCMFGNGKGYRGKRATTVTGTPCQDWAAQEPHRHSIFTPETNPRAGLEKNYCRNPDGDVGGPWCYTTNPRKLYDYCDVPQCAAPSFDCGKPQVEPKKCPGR
Chain of Plasminogen (P00747 581-810 limits assumed): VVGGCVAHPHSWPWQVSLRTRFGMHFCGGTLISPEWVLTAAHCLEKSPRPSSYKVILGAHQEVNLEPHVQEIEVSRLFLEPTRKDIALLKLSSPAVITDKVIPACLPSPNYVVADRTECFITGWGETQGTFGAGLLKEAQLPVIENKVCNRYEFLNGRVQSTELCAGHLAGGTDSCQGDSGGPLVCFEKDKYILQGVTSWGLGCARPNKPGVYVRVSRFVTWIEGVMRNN
Chain of Tissue-type plasminogen activator (P00750 whole entry): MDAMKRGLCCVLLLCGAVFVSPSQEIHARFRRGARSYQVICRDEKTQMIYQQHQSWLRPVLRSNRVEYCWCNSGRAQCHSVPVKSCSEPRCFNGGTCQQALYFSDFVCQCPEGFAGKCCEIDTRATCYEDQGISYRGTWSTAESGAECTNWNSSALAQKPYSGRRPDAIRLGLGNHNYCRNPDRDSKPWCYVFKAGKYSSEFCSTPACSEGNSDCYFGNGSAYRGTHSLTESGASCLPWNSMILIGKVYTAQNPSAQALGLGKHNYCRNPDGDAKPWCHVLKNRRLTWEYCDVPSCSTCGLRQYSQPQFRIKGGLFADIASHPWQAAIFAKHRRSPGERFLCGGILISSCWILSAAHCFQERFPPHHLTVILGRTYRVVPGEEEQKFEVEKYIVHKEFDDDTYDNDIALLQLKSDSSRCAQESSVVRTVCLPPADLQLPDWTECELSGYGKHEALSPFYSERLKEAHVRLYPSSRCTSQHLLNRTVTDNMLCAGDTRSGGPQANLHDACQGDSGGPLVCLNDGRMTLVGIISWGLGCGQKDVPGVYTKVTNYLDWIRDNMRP
Chain of Serine protease 1 (P07477 whole entry): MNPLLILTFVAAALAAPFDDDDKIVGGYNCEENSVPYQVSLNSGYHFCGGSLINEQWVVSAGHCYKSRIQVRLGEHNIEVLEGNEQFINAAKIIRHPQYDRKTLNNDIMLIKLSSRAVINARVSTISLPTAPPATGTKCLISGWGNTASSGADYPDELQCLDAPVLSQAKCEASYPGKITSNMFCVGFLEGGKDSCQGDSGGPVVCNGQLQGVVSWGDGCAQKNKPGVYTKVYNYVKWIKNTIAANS
Chain of Coagulation factor XI (P03951 19-387 limits assumed): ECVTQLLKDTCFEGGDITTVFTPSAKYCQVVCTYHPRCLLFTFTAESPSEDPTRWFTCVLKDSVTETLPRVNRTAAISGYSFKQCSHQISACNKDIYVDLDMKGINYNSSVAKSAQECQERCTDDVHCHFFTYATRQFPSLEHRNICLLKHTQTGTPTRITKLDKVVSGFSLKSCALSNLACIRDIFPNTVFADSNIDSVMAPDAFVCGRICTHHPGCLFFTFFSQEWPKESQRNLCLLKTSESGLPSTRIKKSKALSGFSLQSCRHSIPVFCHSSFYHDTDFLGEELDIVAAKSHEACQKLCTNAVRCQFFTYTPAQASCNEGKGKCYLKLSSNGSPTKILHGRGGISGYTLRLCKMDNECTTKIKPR
Chain of Coagulation factor XI (P03951 388-625 limits assumed): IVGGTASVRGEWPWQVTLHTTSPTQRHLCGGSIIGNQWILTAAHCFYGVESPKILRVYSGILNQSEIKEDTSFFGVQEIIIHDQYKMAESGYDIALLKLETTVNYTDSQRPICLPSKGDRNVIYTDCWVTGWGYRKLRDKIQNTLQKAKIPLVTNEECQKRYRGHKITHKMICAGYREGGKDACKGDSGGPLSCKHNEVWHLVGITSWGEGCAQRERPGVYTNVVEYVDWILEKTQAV
Chain of Plasma kallikrein (P03952 20-390 limits assumed): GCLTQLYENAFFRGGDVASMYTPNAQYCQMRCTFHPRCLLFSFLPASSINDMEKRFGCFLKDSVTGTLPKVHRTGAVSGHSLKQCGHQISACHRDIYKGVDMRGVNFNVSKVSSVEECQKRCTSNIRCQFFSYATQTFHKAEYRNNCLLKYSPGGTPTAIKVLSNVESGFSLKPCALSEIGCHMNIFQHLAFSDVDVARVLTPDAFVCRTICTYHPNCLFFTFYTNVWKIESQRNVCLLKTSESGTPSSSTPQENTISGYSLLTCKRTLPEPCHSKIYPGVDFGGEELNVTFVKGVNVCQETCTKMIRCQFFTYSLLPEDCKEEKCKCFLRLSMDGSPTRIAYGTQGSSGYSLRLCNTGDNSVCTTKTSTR
Chain of Plasma kallikrein (P03952 391-638 limits assumed): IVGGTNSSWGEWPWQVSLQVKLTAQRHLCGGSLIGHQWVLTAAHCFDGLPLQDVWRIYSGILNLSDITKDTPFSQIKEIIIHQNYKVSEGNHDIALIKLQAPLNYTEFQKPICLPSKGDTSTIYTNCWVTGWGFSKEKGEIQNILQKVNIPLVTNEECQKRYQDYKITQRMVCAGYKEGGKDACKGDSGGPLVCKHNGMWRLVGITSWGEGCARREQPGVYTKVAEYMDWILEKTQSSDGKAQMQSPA

Compound | Ki (Coagulation factor XII) [µM] | Ki (Plasminogen) [µM] | also measured
CC(C)C[C@H](NC(=O)[C@H](CS)NC(=O)[C@H](Cc1ccc(O)cc1)NC(=O)[C@@H](NC(=O)[C@H](CCC(N)=O)NC(=O)[C@@H]1CCCN1C(=O)[C@H](CS)NC(=O)[C@@H]1CCCN1C(=O)[C@H](CCCNC(=N)N)NC(=O)[C@H](C)NC(=O)[C@H](CC(=O)O)NC(=O)[C@H](CS)NC(=O)[C@H](C)N)[C@@H](C)O)C(=O)O (H-ACDARPCPQTYCL-OH) | 20.5 | > 120 | –
CC(C)C[C@H](NC(=O)[C@@H]1CCCN1C(=O)[C@H](CS)NC(=O)[C@@H]1CCCN1C(=O)[C@H](CCCN=C(N)N)NC(=O)[C@H](C)NC(=O)[C@H](C)NC(=O)[C@H](CS)NC(=O)CN)C(=O)N[C@H](C(=O)N[C@@H](C)C(=O)N[C@@H](CS)C(=O)N[C@@H](Cc1c[nH]c2ccccc12)C(=O)O)[C@@H](C)O (H-GCAARPCPLTACW-OH) | 33.5 | > 120 | –
C[C@@H]1NC(=O)[C@@H]2CCCN2C(=O)[C@@H]2CCCN2C(=O)[C@@H]2CSCc3cc(cc(c3)CSC[C@@H](C(=O)NCC(=O)O)NC(=O)[C@H](Cc3ccc(O)cc3)NC1=O)CSC[C@H](NC(=O)CN)C(=O)NCC(=O)NCC(=O)N[C@@H](CCCN=C(N)N)C(=O)N1CCC[C@H]1C(=O)N2 (H-GCGGRPCPPAYCG-OH; linker 2-7-12 via TBMB) | 1.2 | > 120 | Ki (Prothrombin): > 120 µM; Ki [1]: > 120 µM; Ki [2]: > 120 µM; Ki (Plasma kallikrein): > 120 µM; Ki (Serine protease 1): > 120 µM; Ki (Coagulation factor XI): > 120 µM
C[C@@H]1NC(=O)[C@@H]2CCCN2C(=O)[C@@H]2CCCN2C(=O)[C@@H]2CSCc3cc(cc(c3)CSC[C@@H](C(=O)NCC(=O)O)NC(=O)[C@H](Cc3ccc(O)cc3)NC1=O)CSC[C@H](NC(=O)CN)C(=O)NCC(=O)NCC(=O)N[C@@H](CCCNC(=N)N)C(=O)N1CCC[C@H]1C(=O)N2 (H-GCGGRPCPPAYCG-OH; linker 2-7-12 via TBMB) | – | – | Activity [3]: 42%; Activity [4]: 95%; inhibition [5]: Dose-dependent effect; Activity [6]: 51%; Activity [7]: 20%; inhibition (Plasma): Dose-dependent effect; Activity [8]: 89%; Activity [9]: 70%
CC(C)C[C@H](NC(=O)[C@@H]1CCCN1C(=O)[C@H](CS)NC(=O)[C@@H]1CCCN1C(=O)[C@H](CCCNC(=N)N)NC(=O)CNC(=O)[C@H](Cc1cnc[nH]1)NC(=O)[C@H](CS)NC(=O)CN)C(=O)N[C@@H](CCC(N)=O)C(=O)N[C@@H](Cc1ccc(O)cc1)C(=O)N[C@@H](CS)C(=O)N[C@@H](CCCCN)C(=O)O (H-GCHGRPCPLQYCK-OH) | 11.2 | 14.2 | –
CSCC[C@H](NC(=O)[C@@H]1CCCN1C(=O)[C@H](CS)NC(=O)[C@@H]1CCCN1C(=O)[C@H](CCCN=C(N)N)NC(=O)CNC(=O)[C@H](CC(C)C)NC(=O)[C@H](CS)NC(=O)CN)C(=O)N[C@@H](C)C(=O)N[C@@H](Cc1ccc(O)cc1)C(=O)N[C@@H](CS)C(=O)N[C@@H](CO)C(=O)O (H-GCLGRPCPMAYCS-OH) | 5 | > 120 | –
CSCC[C@H](NC(=O)[C@H](CS)NC(=O)CN)C(=O)NCC(=O)N[C@@H](CCCNC(=N)N)C(=O)N1CCC[C@H]1C(=O)N[C@@H](CS)C(=O)N1CCC[C@H]1C(=O)N[C@H](C(=O)N[C@@H](CO)C(=O)N[C@@H](Cc1ccc(O)cc1)C(=O)N[C@@H](CS)C(=O)N[C@@H](Cc1ccccc1)C(=O)O)C(C)C (H-GCMGRPCPVSYCF-OH) | 5 | > 120 | –
CC(C)C[C@H](NC(=O)[C@H](C)NC(=O)[C@H](CC(C)C)NC(=O)[C@@H]1CCCN1C(=O)[C@H](CS)NC(=O)[C@@H]1CCCN1C(=O)[C@H](CCCNC(=N)N)NC(=O)[C@H](C)NC(=O)[C@H](Cc1c[nH]c2ccccc12)NC(=O)[C@H](CS)NC(=O)CN)C(=O)N[C@@H](CS)C(=O)N[C@@H](CCC(N)=O)C(=O)O (H-GCWARPCPLALCQ-OH) | 10.2 | > 120 | –
C[C@H](NC(=O)[C@H](CC(N)=O)NC(=O)[C@H](CS)NC(=O)[C@@H](N)CCC(N)=O)C(=O)N[C@@H](CCCNC(=N)N)C(=O)N1CCC[C@H]1C(=O)N[C@@H](CS)C(=O)N1CCC[C@H]1C(=O)N[C@@H](CO)C(=O)N[C@@H](CO)C(=O)N[C@@H](Cc1ccc(O)cc1)C(=O)N[C@@H](CS)C(=O)N[C@@H](CCCNC(=N)N)C(=O)O (H-QCNARPCPSSYCR-OH) | 4.7 | 118 | –
C[C@@H]1NC(=O)[C@@H]2CCCN2C(=O)[C@@H]2CCCN2C(=O)[C@@H]2CSCc3cc(cc(c3)CSC[C@H](NC(=O)[C@@H](N)CO)C(=O)NCC(=O)NCC(=O)N[C@@H](CCCNC(=N)N)C(=O)N3CCC[C@H]3C(=O)N2)CSC[C@@H](C(=O)NCC(N)=O)NC(=O)[C@H](Cc2ccc(O)cc2)NC1=O (H-SCGGRPCPPAYCG-NH2; linker 2-7-12 via TBMB) | – | 4.3 | –
C[C@H](NC(=O)[C@@H]1CCCN1C(=O)[C@@H]1CCCN1C(=O)[C@H](CS)NC(=O)[C@@H]1CCCN1C(=O)[C@H](CCCN=C(N)N)NC(=O)CNC(=O)CNC(=O)[C@H](CS)NC(=O)[C@@H](N)CO)C(=O)N[C@@H](Cc1ccc(O)cc1)C(=O)N[C@@H](CS)C(=O)N[C@@H](CCCCN)C(=O)O (H-SCGGRPCPPAYCK-OH) | 3.1 | 8.3 | –
C[C@@H]1NC(=O)[C@@H]2CCCN2C(=O)[C@@H]2CCCN2C(=O)[C@@H]2CSCc3cc(cc(c3)CSC[C@H](NC(=O)[C@@H](N)CO)C(=O)NCC(=O)NCC(=O)N[C@@H](CCCNC(=N)N)C(=O)N3CCC[C@H]3C(=O)N2)CSC[C@@H](C(=O)N[C@@H](CCCCN)C(=O)O)NC(=O)[C@H](Cc2ccc(O)cc2)NC1=O (H-SCGGRPCPPAYCK-OH; linker 2-7-12 via TBMB) | 3.1 | 8.3 | Ki (Prothrombin): > 120 µM; Ki [1]: > 120 µM; Ki [2]: > 120 µM; Ki (Plasma kallikrein): > 120 µM; Ki (Serine protease 1): > 120 µM; Ki (Coagulation factor XI): > 120 µM
CC(C)C[C@H](NC(=O)[C@H](CCCNC(=N)N)NC(=O)[C@H](Cc1ccccc1)NC(=O)[C@H](C)NC(=O)[C@H](CS)NC(=O)CNC(=O)[C@H](CCC(N)=O)NC(=O)[C@@H](NC(=O)[C@@H](NC(=O)[C@H](CS)NC(=O)[C@@H](N)[C@@H](C)O)[C@@H](C)O)[C@@H](C)O)C(=O)N[C@@H](CS)C(=O)N[C@@H](CO)C(=O)O (H-TCTTQGCAFRLCS-OH) | > 75 | – | –
CC(C)[C@H](N)C(=O)N[C@@H](CS)C(=O)N[C@H](C(=O)N[C@@H](CCC(N)=O)C(=O)N[C@@H](CCCCN)C(=O)N[C@@H](Cc1ccccc1)C(=O)N[C@@H](CS)C(=O)N[C@@H](Cc1c[nH]c2ccccc12)C(=O)N[C@@H](CCCNC(=N)N)C(=O)NCC(=O)N[C@@H](Cc1c[nH]c2ccccc12)C(=O)N[C@@H](CS)C(=O)N1CCC[C@H]1C(=O)O)C(C)C (H-VCVQKFCWRGWCP-OH) | > 75 | – | –
N=C(N)NCCC[C@H](NC(=O)CNC(=O)[C@H](CO)NC(=O)[C@H](CS)NC(=O)[C@@H](N)CO)C(=O)N[C@@H](CCCNC(=N)N)C(=O)N[C@@H](CS)C(=O)N1CCC[C@H]1C(=O)N1CCC[C@H]1C(=O)N[C@@H](CO)C(=O)N[C@@H](Cc1ccc(O)cc1)C(=O)N[C@@H](CS)C(=O)N[C@@H](CCCCN)C(=O)O [SCSGRRCPPSYCK] (H-SCSGRRCPPSYCK-OH) | 7.8 | 3.3 | –
